Where two headings read alike, the source gives them in different places.
What was measured:
HL-60 cells [1] = experiment: cells; format: cell-based, human
normal leukocyte = experiment: Effect on normal leukocyte (MTT viability and Annexin V-FITC/PI apoptosis); format: cell-based, human; conditions: 3.5 μM 2a, 2.5 μM 2b or 15 μM As2O3 for 6 h, 12 h or 24 h
Protocol: Normal human fresh peripheral blood with EDTA anticoagulant was dealt with Red Blood Cell Lysis Buffer according to manufacturer’s instructions (Beyotime, Shanghai, China) to obtain the normal leukocyte. […] Then, the apoptosis rate using Annexin V-FITC/PI staining and cell viability using MTT method were tested respectively. There are 8 independent normal human fresh peripheral blood samples in all to be tested. This study was carried out in accordance with relevant guidelines and regulations of Wuhan University and the experiment protocol was approved by Zhongnan Hospital of Wuhan University. Additionally, the informed consent was obtained from all subjects.

HL-60 cells [2] = format: cell-based, human; conditions: for apoptosis rate (FITC+/PI− and FITC+/PI+): control 2.9%
MCF-7 cells = experiment: cells; format: cell-based; conditions: read-out: IC50 MCF-7
HEK293 cells = experiment: cells; format: cell-based
NIH3T3 cells = experiment: cells; format: cell-based
HL-60 cells [3] = experiment: Hoechst 33342 staining, morphology; format: cell-based, human; conditions: 2a (1 μM and 2 μM) or 2b (0.75 μM and 1.5 μM), 24 h
Protocol: HL-60 cells treated with 2a (1 μM and 2 μM) or 2b (0.75 μM and 1.5 μM) were plated in 12-well plates, and the medium was removed after 24 h, followed by the addition of 5 μg.mL^−1 Hoechst 33342. After being incubated for 30 min in dark at 37 °C, the samples were visualized and photographed using a C1-si Laser Scanning Confocal Microscope (Nikon, Japan)[27].

GES-1 cells = experiment: cells; format: cell-based; conditions: read-out: IC50 GES-1
HL-60 cells [4] = experiment: Total glutathione and GSH/GSSG level; format: cell-based, human; conditions: 2 μM 2a or 1.5 μM 2b; for ratio of GSH/GSSG: with or without 0.075 mM LA
Protocol: The cells were cultured in a 6-well plate and treated with 2 μM 2a or 1.5 μM 2b. After 24 h, the cells were collected and washed twice with PBS. The protein content was quantified by the use of Bradford procedure. Then each sample was treated according to the manufacturer’s instructions (beyotime, Shanghai, China). The absorbance was measured every 5 minutes at 405 nm with microplate reader.
(§1) In protective trial, the cells were pre-incubated with the protective agents for 4 h and other operations were in accordance with the above.

HL-60 cells [5] = experiment: Intracellular ROS level (DCFH-DA); format: cell-based, human; conditions: 2 μM 2a or 1.5 μM 2b, 24 h
Protocol: HL-60 cells treated with 2 μM 2a or 1.5 μM 2b were plated in 12-well plates. After 24 h, each sample of cells was collected and washed once with PBS. The cells were incubated with 300 μL FBS-free medium containing DCFH-DA (1 μM) for 30 min in dark at 37 °C. Data were obtained and analyzed using a C6 flow cytometer (BD Biosciences, USA)[27].
In laser scanning confocal experiment, the medium was removed after 24 h incubation. 1 mL FBS-free medium with DCFH-DA (10 μM) was added to each sample. Then continue the incubation for 30 min in dark at 37 °C. The samples were visualized and photographed using a C1-si Laser Scanning Confocal Microscope (Nikon, Japan).
as §1

Caspase-3 in HL-60 cells = experiment: Caspase-3 activity (colorimetric, cell extracts); format: cell-based, human
Protocol: HL-60 cells were treated with 3 μM 2a or 2 μM 2b for 12 h in a 6-well plate. Each sample was collected and washed twice with PBS. Then the cells were incubated with moderate lysis buffer from the kit on ice. The cell extract was handled on the basis of manufacturer’s instructions (beyotime, Shanghai, China). After 3 h, the absorbance at 405 nm was measured using a microplate reader.
as §1

SGC7901 cells = experiment: cells; format: cell-based; conditions: read-out: IC50 SGC7901
HL-60 cells [6] = experiment: Mitochondrial membrane potential (JC-1 or Rh123, flow cytometry); format: cell-based, human
Protocol: HL-60 cells treated with 2a (1.5 μM and 3 μM) or 2b (1 μM and 2 μM) were plated in 12-well plates. After 24 h, cells were collected and washed once with PBS. Then, the cells were handled with JC-1 according to the manufacturer’s instructions (Multi Sciences BiotechCo., Ltd, Hangzhou, China) or Rh123. Data were obtained and analyzed using a C6 flow cytometer (BD Biosciences, USA).
as §1

HL-60 cells [7] = experiment: Released cytochrome c level (ELISA); format: cell-based, human; conditions: 3 μM 2a or 2 μM 2b, 24 h
Protocol: HL-60 cells with 3 μM 2a or 2 μM 2b were incubated in a 12-well plate for 24 h. The cells were sacrificed and dealt with ELISA Kit (Meilian BiotechCo., Ltd, Shanghai, China) according to the manufacturer’s instructions. The absorbance was measured at 450 nm with microplate reader.
as §1

[8] = Homo sapiens, HL-60, 24 h, read-out: IC50 HL-60
[9] = 3 μM 2a or 2 μM 2b alone, 24 h (Fig. 2a, Fig. 6c)
[10] = 3 μM 2a or 2 μM 2b alone, 24 h, LA experiment (Fig. 6d)
[11] = 3 μM 2a or 2 μM 2b with 0.075 mM LA pre-incubating, 24 h
[12] = 3 μM 2a or 2 μM 2b with 2 mM NAC, 24 h
[13] = 3 μM 2a or 2 μM 2b, 24 h (Fig. 2a)
[14] = Homo sapiens, HEK293, read-out: IC50 HEK293
[15] = Mus musculus, NIH3T3, read-out: IC50 NIH3T3
[16] = 3 μM 2a or 2 μM 2b alone, 24 h, 12 h (method)
[17] = 3 μM 2a or 2 μM 2b with 0.075 mM LA
[18] = 3 μM 2a or 2 μM 2b after pre-adding 0.075 mM LA
[19] = 3 μM 2a or 2 μM 2b, 24 h (Fig. 5b), control 30.8%

Row | SMILES | concentration that could kill the majority of HL-60 cells (HL-60 cells [1]) | IC50 (HL-60 cells [1]; [8]) [µM] | influence on normal leukocyte (cell viability, apoptosis) versus control (normal leukocyte) | apoptosis rate (FITC+/PI− and FITC+/PI+) (HL-60 cells [2]; 1.5 μM 2a or 1 μM 2b, 24 h) [%] | Q1-LL live (normal) cells (HL-60 cells [2]; [9]) [%] | apoptosis rate (HL-60 cells [2]; [10]) [%] | apoptosis rate (HL-60 cells [2]; [11]) [%] | Q1-LL live (normal) cells (HL-60 cells [2]; [12]) [%] | apoptosis rate (FITC+/PI− and FITC+/PI+) (HL-60 cells [2]; [13]) [%] | IC50 (MCF-7 cells; Homo sapiens, MCF7, 24 h) [µM] | IC50 (HEK293 cells; [14]) [µM] | IC50 (NIH3T3 cells; [15]) [µM] | morphology changes (Hoechst 33342 fluorescence) (HL-60 cells [3]) | IC50 (GES-1 cells; Homo sapiens, GES1, 24 h) [µM] | content of intracellular total GSH (HL-60 cells [4]; 24 h) | content of intracellular total GSH (HL-60 cells [4]; pretreatment with 0.075 mM LA) | ratio of GSH/GSSG (HL-60 cells [4]) | relative fluorescence intensity of DCF (ROS) versus control (HL-60 cells [5]) | ROS level with antioxidant (HL-60 cells [5]; 0.075 mM LA pre-incubated 4 h) | IC50 (SGC7901 cells; Homo sapiens, SGC-7901, 24 h) [µM] | other results
1 | COc1cc(C=Nc2ccc([As]=O)cc2)ccc1O (centres unmarked) [Compound 2b, 2-methoxy-4-(((4-(oxoarsanyl)phenyl)imino)methyl)phenol] | less than 1 μM | 0.51 ± 0.1 | no more influence on normal leukocyte than control | 10.7 | 34.4 | 86.1 | 11.7 | 92.1 | 65.3 | 2.81 ± 1.34 | 2.29 ± 0.34 | 2.72 ± 0.64 | cell nuclear shrinkage and DNA incision | 1.57 ± 0.26 | decreased significantly | could recover the content | showed the similar variation trend | doubled approximately | scavenging ROS completely | 2.12 ± 0.48 | ROS level with antioxidant (HL-60 cells [5]; 1 mM DTT pre-incubated 4 h): eliminate the majority of ROS; ROS level with antioxidant (HL-60 cells [5]; 1 mM VC pre-incubated 4 h): eliminate the majority of ROS; ROS level with antioxidant (HL-60 cells [5]; 2 mM NAC pre-incubated 4 h): removed completely; ROS level with antioxidant (HL-60 cells [5]; pretreated with GSH): began to decrease by a concentration-dependent way; activity of Caspase-3 (Caspase-3 in HL-60 cells; [16]): enhanced; activity of Caspase-3 (Caspase-3 in HL-60 cells; [17]): could be deterred by 0.075 mM LA; intensity of Rh123 (mitochondrial membrane potential) (HL-60 cells [6]; 3 μM 2a or 2 μM 2b): drop obviously; intensity of Rh123 (mitochondrial membrane potential) (HL-60 cells [6]; [18]): recovered to some extent; proportion of mitochondrial membrane potential collapse (P2, JC-1) (HL-60 cells [6]; 3 μM 2a or 2 μM 2b with 0.075 mM LA pre-incubation (Fig. 5b)): ~12%; proportion of mitochondrial membrane potential collapse (P2, JC-1) (HL-60 cells [6]; [19]): 78.5%; relative content of cytochrome c versus control (HL-60 cells [7]): five times
2 | O=[As]c1ccc(N=Cc2c3ccccc3cc3ccccc23)cc1 (centres unmarked) [Compound 4a, 1-(anthracen-9-yl)-N-(4-(oxoarsanyl)phenyl) methanimine] |  | 15.9 ± 0.56 |  |  |  |  |  |  |  | 11.3 ± 3.4 |  |  |  | 8.72 ± 3.76 |  |  |  |  |  | 7.63 ± 3.02 | IC50 (HL-60 cells [1]; Homo sapiens, HL-60, read-out: half inhibitory concentration (IC50) for HL-60 cells): > 10 µM; melting point: 91 to 92 °C
3 | Oc1ccccc1C=Nc1ccccc1 [Compound 1a, 2-((phenylimino)methyl) phenol, reference compound] |  | > 100 |  |  |  |  |  |  |  | > 100 |  |  |  | > 100 |  |  |  |  |  | > 100 | 
4 | O=[As]c1ccc(N=Cc2ccccc2O)cc1 (centres unmarked) [Compound 2a, 2-(((4-(oxoarsanyl)phenyl)imino)methyl)phenol] | less than 1 μM | 0.77 ± 0.1 | no more influence on normal leukocyte than control | 9.3 | 44.3 | 55.7 | 11.4 | 86.6 | 55.5 | 2.53 ± 0.41 | 4.36 ± 0.62 | 7.43 ± 0.37 | cell nuclear shrinkage and DNA incision | 5.96 ± 1.23 | decreased significantly | could recover the content | showed the similar variation trend | doubled approximately | scavenging ROS completely | 4.03 ± 0.89 | ROS level with antioxidant (HL-60 cells [5]; 1 mM DTT pre-incubated 4 h): scavenge additional ROS completely; ROS level with antioxidant (HL-60 cells [5]; 1 mM VC pre-incubated 4 h): decrease the level of ROS to that of control; ROS level with antioxidant (HL-60 cells [5]; 2 mM NAC pre-incubated 4 h): scavenge additional ROS completely; ROS level with antioxidant (HL-60 cells [5]; pretreated with GSH): began to decrease by a concentration-dependent way; activity of Caspase-3 (Caspase-3 in HL-60 cells; [16]): enhanced; activity of Caspase-3 (Caspase-3 in HL-60 cells; [17]): could be deterred by 0.075 mM LA; intensity of Rh123 (mitochondrial membrane potential) (HL-60 cells [6]; 3 μM 2a or 2 μM 2b): drop obviously; intensity of Rh123 (mitochondrial membrane potential) (HL-60 cells [6]; [18]): recovered to some extent; proportion of mitochondrial membrane potential collapse (P2, JC-1) (HL-60 cells [6]; [19]): 68.3%; relative content of cytochrome c versus control (HL-60 cells [7]): approximately six times
5 | O=[As]O [NaAsO2, reference compound] |  |  |  |  |  |  |  |  |  |  |  |  |  |  |  |  |  |  |  |  | IC50 (HL-60 cells [1]; read-out: IC50 HL-60): 10.6 ± 3.06 µM; IC50 (MCF-7 cells): 31.7 ± 0.67 µM; IC50 (HEK293 cells; read-out: IC50 HEK293): 14.6 ± 0.61 µM; IC50 (NIH3T3 cells; read-out: IC50 NIH3T3): 10.8 ± 1.66 µM; IC50 (GES-1 cells): 42.6 ± 11.6 µM; IC50 (SGC7901 cells): 59 ± 11.8 µM

Reference: PMC4949440 (Scientific Reports, 2016)
